Laboratory results taken from patent publication US8017350B2, “Glimepiride- and insulin-induced glycosylphosphatidylinositol-specific phospholipase C regulation” (Sanofi-Aventis Deutschland GmbH, priority 2004, dated 2011).

Assays:
[1] = system: cabbage PLD; test: PLD assay ([14C]phosphatidylcholine); type: biochemical; details: 50 μM
Protocol: (§1) Hormone-sensitive lipase (HSL) and lipoprotein lipase (LPL) were measured using a radiolabeled triolein droplet emulsion as described in “Vertesy et al., (2002) Journal Antibiotics 55:480-494”. Pancreatic lipase (PL) was determined by incubation of 0.25 mmol tributyrin in 2 ml of 5 mM Tris/HCl (pH 6.5), 6 mM sodium taurodeoxycholate, 150 mM NaCl, 1 mM CaCl2 with porcine PL and colipase in the same buffer using a recording pH stat (stirring at 1000 rpm at 25° C.) with the pH adjusted to 6.5. PC-PLC was assayed by incubation of 0.2 ml of 10 mM dipalmitoyllecithin, 0.1 ml of 10 mM SDC and 0.1 ml of 0.03 M CaCl2 with bacterial PC-PLC (in 50 mM Tris/HCl, pH 7.5, 0.1% BSA) for 10 min at 37° C. The reaction was terminated by addition of 0.1 ml of 50% TCA and subsequently of 2.5 ml of […]. After centrifugation (1500×g, 15 min), 0.2-ml portions of the upper methanol/water phase (˜1.33 ml) were removed, supplemented with 0.5 ml of 60% HClO4, then heated at 170° C. for 1 h and finally analyzed for inorganic phosphate. Mammalian PI-PLC was measured by incubation of 0.1 ml of 10 mM PI, 0.1 ml of 0.8% sodium deoxycholate, 0.1% BSA, 0.2 ml of 100 mM sodium borate (pH 7.5) and rat liver PI-PLC for 20 min at 37° C. The reaction was terminated and further processed as described for the PC-PLC. […] Radioactive phosphatidic acid was detected by phosphorimaging. […]

[2] = target: T1, bacterial PC-PLC (Bacillus cereus) (Bacillus cereus, UniProt P09598); test: PC-PLC assay (dipalmitoyllecithin); type: biochemical; details: 50 μM
T1 construct: purchased SigmalAldrich (Deisenhofen, Germany)
Protocol: as §1

[3] = system: GPI-proteins 5′-Nuc, Gce1 and aP in isolated rat adipocytes; test: localization of lipolytically cleaved and uncleaved GPI-proteins at hcDIGs, IcDIGs and total plasma membranes (TX-114 partitioning); type: cell-based
[4] = system: isolated rat adipocytes; test: isoproterenol-induced lipolysis (glycerol release); type: cell-based
Protocol: Electroporation was performed as described in “Müller, G. et al., (2000) Mol. Cell. Biol. 20: 4708-4723”. Lipolysis was determined as release of glycerol or fluorescent NBD-FA from prelabeled and isoproterenol-stimulated adipocytes as described in “Müller, G. et al., (2003) Biochimie 85: 1245-1256”. Gce1 was detected by photolabeling of solubilized plasma membranes or hc/lcDIGs (10-50 μg protein) with 8-N3—[^32P]cAMP and subsequent phosphorimaging as described in “Müller, G. et al., (1994) Biochemistry 33: 12149-12159”. 5′-Nuc, aP and AChE activities were measured according to “Eliakim, R. et al., (1990) Biochim. Biophys. Acta 1355: 293-302”. Protein was determined using the BCA protein determination kit from Pierce (Rockford, Ill.) and BSA as calibration standard. SDS-PAGE was performed using precast gels (Novex, San Diego, Calif.; 10% Bis-Tris resolving gel, morpholinopropanesulfonic acid-SDS running buffer). Lumiimages were evaluated on a LumiImager using LumiImager software (Roche Diagnostics). Phosphor- and fluorescence images were processed and quantified using the Storm 860 PhosphorImager system (Molecular Dynamics, Gelsenkirchen, Germany). Figures were constructed using the ADOBE PHOTOSHOP software (Adobe Systems, Mountain View, Calif.).
FIG. 8: Effect of GPI-2350 on the glimepiride/insulin-induced metabolic activity. […]

[5] = amphiphilic version in hcDIGs of basal adipocytes set at 100, GPI-2350 50 μM, insulin 10 nM, glimepiride 20 μM

T1 sequence (P09598 39-283 limits assumed): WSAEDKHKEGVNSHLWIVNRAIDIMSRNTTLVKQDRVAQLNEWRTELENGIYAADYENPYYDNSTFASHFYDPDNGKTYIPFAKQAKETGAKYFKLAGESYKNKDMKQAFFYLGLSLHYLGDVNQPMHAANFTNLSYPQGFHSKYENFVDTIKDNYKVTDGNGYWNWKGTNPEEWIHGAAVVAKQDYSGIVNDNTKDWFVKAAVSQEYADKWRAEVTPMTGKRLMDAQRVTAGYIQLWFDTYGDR

## CCCCCCCCCCCCP1(=O)O[C@@H]2[C@H](O)[C@@H](O)[C@H](O)[C@@H](O)[C@@H]2O1 (stereo partly shown) [GPI-2350, myo-inositol-1,2-cyclo-dodecylphosphonic acid]
[1]
  effect on PLD: not significantly affected
[2]
  effect on PC-PLC: not significantly affected
[3]; 50 μM
  effect on insulin/glimepiride-induced increase in hydrophilic GPI-proteins in plasma membranes: completely blocked
[3]; [5]
  aP hydroph. IcDIGs: 2 ± 2 arb. units
  aP hydroph. hcDIGs: 10 ± 1 arb. units
[4]
  effect on insulin inhibition of lipolysis: only marginally reduced
[4]; 50 μM
  effect on inhibition of lipolysis in response to glimepiride: almost complete blockade
